pIC50: −log10 of the molar value.

Sequence of Acetylcholinesterase (P22303 whole entry): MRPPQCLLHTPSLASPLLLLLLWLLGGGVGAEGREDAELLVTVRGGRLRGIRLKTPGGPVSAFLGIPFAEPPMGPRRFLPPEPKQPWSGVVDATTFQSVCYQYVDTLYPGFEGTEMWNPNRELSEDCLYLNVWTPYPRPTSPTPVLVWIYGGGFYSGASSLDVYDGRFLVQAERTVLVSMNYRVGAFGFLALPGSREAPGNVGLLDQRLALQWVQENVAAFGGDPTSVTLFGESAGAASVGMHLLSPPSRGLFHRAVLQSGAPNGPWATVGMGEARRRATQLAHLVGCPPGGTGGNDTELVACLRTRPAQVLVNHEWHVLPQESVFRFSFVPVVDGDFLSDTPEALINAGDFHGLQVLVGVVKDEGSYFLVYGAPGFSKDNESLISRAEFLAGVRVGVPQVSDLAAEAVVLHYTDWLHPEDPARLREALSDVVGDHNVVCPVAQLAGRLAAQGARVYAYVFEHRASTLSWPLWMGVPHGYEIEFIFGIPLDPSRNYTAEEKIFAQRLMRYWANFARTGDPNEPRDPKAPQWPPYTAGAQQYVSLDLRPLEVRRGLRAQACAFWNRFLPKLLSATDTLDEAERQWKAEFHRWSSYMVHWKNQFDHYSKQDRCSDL

The first assay has as its target Acetylcholinesterase (Homo sapiens, UniProt P22303). The experiment in a line: Inhibition of human acetylcholinesterase using ATCI/DTNB as substrate preincubated for 30 mins followed by substrate addition measured for 60 mins by Ellman method.
Conditions: not given; call rule not given here
Turning to `COC(=O)C1=C(Nc2ccccc2)C[C@@H](c2ccccc2[N+](=O)[O-])N(c2ccccc2)[C@@H]1c1ccccc1[N+](=O)[O-]`, the IC50 entry is recorded as “Not Active”.

Staying with this assay, now noted: read-out: IC50.
For the compound `COC(=O)C1=C(Nc2ccccc2)C[C@@H](c2ccc3c(c2)OCO3)N(c2ccccc2)[C@@H]1c1ccc2c(c1)OCO2`, the pIC50 is 2.49.

The same assay, now with this note: read-out: pIC50 (converted).
With `CCOC(=O)C1=C(Nc2ccccc2)C[C@@H](c2ccccc2)N(c2ccccc2)[C@@H]1c1ccccc1`, the IC50 was 2.95 µM.
`COC(=O)C1=C(Nc2ccccc2)C[C@@H](c2ccccc2)N(c2ccccc2)[C@@H]1c1ccccc1`: the IC50 is 6.52 µM.
On the same count and under the same terms, for `COC(=O)C1=C(Nc2ccccc2)C[C@@H](c2ccc(C)cc2)N(c2ccccc2)[C@@H]1c1ccc(C)cc1` the value was 5.73 µM; for `CCOC(=O)C1=C(Nc2ccccc2)C[C@@H](c2ccc(C)cc2)N(c2ccccc2)[C@@H]1c1ccc(C)cc1`, 5.58 µM.
Take `COC(=O)C1=C(Nc2ccc(C)cc2)C[C@@H](c2ccc(C)cc2)N(c2ccc(C)cc2)[C@@H]1c1ccc(C)cc1`: the IC50 was 6.78 µM.
As for `COC(=O)C1=C(Nc2ccc(Br)cc2)C[C@@H](c2ccc(C)cc2)N(c2ccc(Br)cc2)[C@@H]1c1ccc(C)cc1`, the IC50 was 2.48 µM.
In the case of `COC(=O)C1=C(Nc2ccc(Cl)cc2)C[C@@H](c2ccc(C)cc2)N(c2ccc(Cl)cc2)[C@@H]1c1ccc(C)cc1`, the IC50 was 2.15 µM.
Same read-out and setting: for `COC(=O)C1=C(Nc2ccc(OC)cc2)C[C@@H](c2ccc(C)cc2)N(c2ccc(OC)cc2)[C@@H]1c1ccc(C)cc1` the value was 5.83 µM; for `CCOC(=O)C1=C(Nc2ccc(OC)cc2)C[C@@H](c2ccc(C)cc2)N(c2ccc(OC)cc2)[C@@H]1c1ccc(C)cc1`, 4.98 µM.
With `CCOC(=O)C1=C(Nc2ccc(OC)cc2)C[C@@H](c2ccccc2)N(c2ccc(OC)cc2)[C@@H]1c1ccccc1`, the IC50 is 2.25 µM.
For `CCOC(=O)C1=C(Nc2ccc(Cl)cc2)C[C@@H](c2ccccc2)N(c2ccc(Cl)cc2)[C@@H]1c1ccccc1`, the IC50 was 4.6 µM.
For the compound `CCOC(=O)C1=C(Nc2ccc(C)cc2)C[C@@H](c2ccccc2)N(c2ccc(C)cc2)[C@@H]1c1ccccc1`, the IC50 is 5.18 µM.
Turning to `COC(=O)C1=C(Nc2ccc(F)cc2)C[C@@H](c2ccccc2)N(c2ccc(F)cc2)[C@@H]1c1ccccc1`, the IC50 was 15.1 µM.
As for `CCOC(=O)C1=C(Nc2ccc(F)cc2)C[C@@H](c2ccc(Cl)cc2)N(c2ccc(F)cc2)[C@@H]1c1ccc(Cl)cc1`, the IC50 was 0.55 µM.
For the compound `CCOC(=O)C1=C(Nc2ccccc2)C[C@@H](c2ccc(F)cc2)N(c2ccccc2)[C@@H]1c1ccc(F)cc1`, the IC50 is 0.39 µM.
As to `COC(=O)C1=C(Nc2ccc(F)cc2)C[C@@H](c2ccc(F)cc2)N(c2ccc(F)cc2)[C@@H]1c1ccc(F)cc1`, the IC50 is 3.2 µM.
Same read-out and setting: for `COC(=O)C1=C(Nc2ccc(Cl)cc2)C[C@@H](c2ccc(F)cc2)N(c2ccc(Cl)cc2)[C@@H]1c1ccc(F)cc1` the value was 0.71 µM; for `CC(C)(C)OC(=O)C1=C(Nc2ccccc2)C[C@@H](c2ccccc2)N(c2ccccc2)[C@@H]1c1ccccc1`, 2.79 µM.
Regarding `COC(=O)C1=C(Nc2ccccc2)C[C@@H](c2ccc(Cl)cc2)N(c2ccccc2)[C@@H]1c1ccc(Cl)cc1`, the IC50 is 0.879 µM.
Regarding `CCOC(=O)C1=C(Nc2ccc(C)cc2)C[C@@H](c2ccc(Cl)cc2)N(c2ccc(C)cc2)[C@@H]1c1ccc(Cl)cc1`, the IC50 is 5.4 µM.
Regarding `COC(=O)C1=C(Nc2ccc(Br)cc2)C[C@@H](c2ccc(Cl)cc2)N(c2ccc(Br)cc2)[C@@H]1c1ccc(Cl)cc1`, the IC50 is 0.879 µM.
Turning to `COC(=O)C1=C(Nc2ccc(Br)cc2)C[C@@H](c2ccc(OC)cc2)N(c2ccc(Br)cc2)[C@@H]1c1ccc(OC)cc1`, the IC50 is 2.16 µM.
As to `CCOC(=O)C1=C(Nc2ccc(Cl)cc2)C[C@@H](c2ccc(OC)cc2)N(c2ccc(Cl)cc2)[C@@H]1c1ccc(OC)cc1`, the IC50 was 0.38 µM.
With `COC(=O)C1=C(Nc2ccccc2)C[C@@H](c2ccc3c(c2)OCO3)N(c2ccccc2)[C@@H]1c1ccc2c(c1)OCO2`, the IC50 was 0.511 µM.

The record behind these values is ChEMBL document CHEMBL3596196, “In vitro evaluation and in silico screening of synthetic acetylcholinesterase inhibitors bearing functionalized piperidine pharmacophores” (Bioorg Med Chem, 2015).
